Source: US5594001A, “Polycyclic systems, and derivatives thereof, as neurotransmitter release enhancers useful in the treatment of cognitive disorders” (The DuPont Merck Pharmaceutical Company, priority 1994, dated 1997)
Counter-ions that a name gives are not always drawn. Each block holds one compound with its values, some of them ahead of it.

Experiments:
[1] = system: stimulus-induced acetylcholine release, slices from the parietal cortex; test: Neurotransmitter (ACh) release assay, rat cortex slices, K+ stimulated; assay type: cell-based, rat (male Wistar); settings: for activation at 10 µM: Table II, % increase of drug-induced ACh release; for EC50: Table III
Description: The neurotransmitter release activities of the compounds of this invention were determined using standard biochemical assay procedures for example, the neurotransmitter release assay as described below.
Neurotransmitter release assay.
The neurotransmitter (Ach) release activities of the compounds of this invention were determined by the assay as described by Nickolson, et al., Drug Development Research, (1990) 19: 285-300, a modification of the procedure described by Mulder, et al., Brain Res., (1974) 70: 372.
Male Wistar rats (Charies River) weighing 175-200 grams were used. Rats were decapitated and brains were dissected immediately. Slices (0.3 mm thick) from the parietal cortex were prepared (approximately 100 mg wet weight) and were incubated in 10 ml KrebsRinger medium (KR) containing NaCl (116 mM), KCl (3 mM), CaCl2 (1.3 mM), MgCl2 (1.2 mM), KH2 PO4 (1.2 mM), Na2 SO4 (1.2 mM), NaHCO3 (25.0 mM), and glucose (11.0 mM), to which was added 10 uCi ^3 H-choline (specific activity approximately 35 Ci/mM; NEN) and […] unlabeled choline to give a final concentration of one micromole. The brain preparations were incubated for 30 min. at 37° C. under a steady flow of 95% O2 /5% CO2. Under these conditions, part of the radioactive choline taken up by the preparation was converted into radioactive acetylcholine (ACh) by the cholinergic nerve endings stored in synaptic vesicles, and released upon depolarization by high potassium ion (K+) containing media.
After labelling of the ACh stores, the slices were washed three times with non-radioactive KR medium and transferred to a superfusion apparatus to measure the drug effects on ACh release. The superfusion apparatus consisted of 10 thermostated glass columns of 5 mm diameter that were provided with GF/F glass fiber filters to support the slices (approximately 10 mg tissue/column). Superfusion was carried out in KR-medium (0.3 ml/min.) containing […] hemicholine-3 (HC-3). The HC-3 prevents the reuptake of choline formed during the superfusion from phospholipids and released ACh, which would be converted into unlabeled ACh and released in preference to the preformed labeled ACh. The medium was delivered by a 25-channel peristaltic pump (Ismatec by Brinkman) and warmed to 37° C. in a thermostated stainless steel coil before entering the superfusion column. Each column was provided with a 4-way slider valve (Beckmann instruments) which allowed rapid change of low to high K+/KR-medium, and with two 10-channel 3-way valves that were used to change from drug-free to drug-containing low and high K+/KR-medium. After 15 min. of washout of non-specifically bound radioactivity, collection of 4 min. fractions was initiated. After three 4 min. collections, the original medium was changed to a KR-medium in which the KCl concentration had been increased to 25 mM (high K+ medium) (S1). Depolarization-induced stimulation of release by high K+/KR-medium lasted for 4 min. Drug free low and high K+/KR-media were then substituted by drug- and vehicle-containing low- and high-K+/KR-medium, and superfusion was continued for three 4 min. collections with low K+/KR-medium, one 4 min. collection with high K+/KR-medium (s2), and two 4 min. collections with low K+/KR-medium.
Drug was added to the media by 100-fold dilutions of appropriate concentrations of the drug (in 0.9% saline) with either low- or high-K+/KR-medium. For comparative purposes, linopirdine was also run.
All superfusion fractions were collected in liquid scintillation counting vials. After superfusion, the slices were removed from the superfusion columns and extracted with 1.0 ml of 0.1N HCl. Liquiscint (NEN) counting fluid (12 ml) was added to superfusion fractions and extracts, and the samples were counted in a Packard Tricarb Liquid Scintillation Counter. No corrections were made for quenching. […]

[2] = system: ACh level in the rat hippocampus; test: Microdialysis, ACh levels in the rat hippocampus in vivo; parameters: species or system rat (male Wistar); settings: for AUC, Area % under the curve / Peak, maximal % increase of ACh release over baseline / time of Peak after administration / Duration, minutes of release above statistical significance: Table IV
Description: Male Wistar Rats are anaesthetized and guide cannulas stereotaxically implanted into the brain at the level of the dorsal hippocampus. Following a minimum recovery period of 72 h, dialysis probes (0.5 mm diameter, 4.0 mm long, from BAS) are inserted into the hippocampus through the guide cannulas. The probes are perfused at a rate of 2 μl/min with artificial cerebrospinal fluid containing 100 μM physostigmine sulfate (a cholinesterase inhibitor). Rats are allowed to acclimate for 2 hours prior to sample collection. Dialysate samples are collected every 20 min (40 μl) and immediately injected onto a high performance liquid chromatograph equipped for electrochemical detection (HPLC-EC) of acetylcholine (ACh). Following collection of 3 baseline samples, drugs or vehicle control are administered in 0.01 ml/g body weight and dialysate samples are collected for an additional 3 h. The ACh peak heights of the 3 samples prior to drug administration are averaged together to determine baseline ACh levels. ACh peak heights post drug administration are measured and used to determine percent change over baseline ACh levels. At the end of experiments, probe placement is verified histologically.
ACh is separated by reverse phase chromatography (Hamilton PRP-1 column 150×4.5 mm) and converted to acetate, betaine and hydrogen peroxide on an immobilized enzyme reactor column (BAS). Hydrogen peroxide is then detected electrochemically. Mobile phase for the chromatography consists of 0.2M Na2 HPO4, 0.1 mM EDTA, 0.5 mM SOS, 0.9 mM TMA.Cl, with pH adjusted to 8.0 with phosphoric acid and […] Kathon CG (ESA) added to each liter of mobile phase to retard bacterial growth.
FIGS. 1 and 2 show the effects of fluorine substitution to the pendant groups of the anthrone and azafluorene core series on the ability of compounds to increase the level of ACh in the rat hippocampus in vivo. All compounds were tested at 5 mg/kg except Ex. No 64 which was administered at 1 mg/kg. […] This was observed even though the compound was administered by a route (i.p.) which should lead to greater bioavailability than the oral route. Example 68 of the present invention, the bis-fluorinated analog of Example 611 or U.S. Pat. No. 5,173,489, on the other hand, led to a 2-fold increase in ACh levels which was maintained for over 1 hour (FIG. 1). The anthrone compound Ex. No. 440 of U.S. Pat. No. 5,173,489, at 5 mg/kg, led to a peak ACh level of 72% over baseline (FIG. 2). Ex. No. 64 of the present invention, which is the bis-fluoro analog of Ex. No. 440 of U.S. Pat. No. 5,173,489, at 1 mg/kg, led to a delayed increase in ACh levels reaching a peak of over 100% above baseline (FIG. 2). In contrast to the observed effects of Example 440 of U.S. Pat. No. 5,173,489, the increase in ACh level after administration of Example 64 of the present invention was maintained for the entire duration of testing (3 hours).

[3] = 5 mg/kg, vehicle water, NSP = no significant points

Compound: c1ccc2c(c1)-c1sccc1C2Cc1ccncc1 (stereo not drawn) [Example 1, 4-(4-Pyridinylmethyl)-4H-indeno[1,2-B]thiophene]
- activation at 10 µM [1]: 92%

Compound: N#Cc1cccc(CC2(Cc3ccncc3)c3ccccc3-c3sccc32)c1 (stereo not drawn) [Example 2, 3-[4-(4-Pyridinylmethyl)-4H-indeno[1,2-B]thiophen-4-ylmethyl-benzonitrile Hydrobromide Hydrate]
- activation at 10 µM [1]: 220%

Compound: N#CCCCCC1(Cc2ccncc2)c2ccccc2-c2sccc21 (stereo not drawn) [Example 3, 4-(4-Pyridinylmethyl)-4H-indeno[1,2-B]thiophene-4-pentanenitrile Hydrobromide Hydrate]
- activation at 10 µM [1]: 145%

Compound: CCOC(=O)CC1(Cc2ccncc2)c2ccccc2-c2sccc21 (stereo not drawn) [Example 4, 4-(4-Pyridinylmethyl)-4H-indeno[1,2-B]thiophene-4-acetic acid, Ethyl Ester Hydrochloride]
- activation at 10 µM [1]: 146%

Compound: CC(=O)OCCCCC1(Cc2ccncc2)c2ccccc2-c2sccc21 (stereo not drawn) [Example 5, 4-(4-Pyridinylmethyl)-4H-indeno[1,2-B]thiophene-4-butanol Acetate (Ester) Hydrochloride]
- activation at 10 µM [1]: 224%

Compound: NC(=O)CCCCC1(Cc2ccncc2)c2ccccc2-c2sccc21 (stereo not drawn) [Example 6, 4-(4-Pyridinylmethyl)-4H-indeno[1,2-B]thiophene-4-pentanamide Hydrochloride Hydrate]
- activation at 10 µM [1]: 163%

Compound: Fc1cc(CC2(Cc3ccncc3)c3ccccc3-c3sccc32)ccn1 (stereo not drawn) [Example 7, 2-Fluoro-4-[4-(4-pyridinylmethyl)-4H-indeno[1,2-B]thiophen-4-ylmethyl]-pyridine]
- activation at 10 µM [1]: 439%
- AUC, Area % under the curve ([2]; 5 mg/kg, vehicle water): 235 ± 87%
- Peak, maximal % increase of ACh release over baseline ([2]; 5 mg/kg, vehicle water): 53 ± 19%
- time of Peak after administration ([2]; 5 mg/kg, vehicle water): 180 min
- Duration, minutes of release above statistical significance [2, 3]: NSP

Compound: c1ccc(CC2(Cc3ccncc3)c3ccccc3-c3sccc32)cc1 (stereo not drawn) [Example 8]
- activation at 10 µM [1]: 130%

Compound: c1cnc2c(c1)C(Cc1ccncc1)c1ccsc1-2 (stereo not drawn) [Example 10, 4-(4-Pyridinylmethyl)-4H-thieno[2',3':3,4]cyclopenta[1,2-B]pyridine]
- activation at 10 µM [1]: 118%

Compound: Fc1cc(CC2(Cc3ccncc3)c3cccnc3-c3sccc32)ccn1 (stereo not drawn) [Example 11, 4-[(2-Fluoro-4-pyridinyl)methyl]-4-(4-pyridinylmethyl)-4H-thieno[3',2':4,5]cyclopenta[1,2-B]pyridine]
- activation at 10 µM [1]: 757%

Compound: c1ccc(-n2cc3c(n2)-n2cccc2C3(Cc2ccncc2)Cc2ccncc2)cc1 [Example 15, 2,4-Dihydro-2-phenyl-4,4-bis(4-pyridinylmethyl)pyrazolo[4,3-B]pyrrolizine]
- activation at 10 µM [1]: 348%

Compound: Fc1cc(CC2(Cc3ccncc3)c3ccccc3-c3ncccc32)ccn1 (stereo not drawn) [Example 62]
- EC50 [1]: 300 nM
- AUC, Area % under the curve ([2]; 5 mg/kg, vehicle water): 160 ± 187%
- Peak, maximal % increase of ACh release over baseline ([2]; 5 mg/kg, vehicle water): 47 ± 32%
- time of Peak after administration ([2]; 5 mg/kg, vehicle water): 40 min
- Duration, minutes of release above statistical significance [2, 3]: NSP
- AUC, Area % under the curve ([2]; 10 mg/kg, vehicle water): 221 ± 85%
- Duration, minutes of release above statistical significance ([2]; 10 mg/kg, vehicle water): > 40 min
- Peak, maximal % increase of ACh release over baseline ([2]; 10 mg/kg, vehicle water): 52 ± 10%
- time of Peak after administration ([2]; 10 mg/kg, vehicle water): 20 min

Compound: O=C1c2ccccc2C(Cc2ccnc(F)c2)(Cc2ccnc(F)c2)c2ccccc21 [Example 64, 10,10-Bis((2-fluoro-4-pyridinyl)methyl)-9(10H)-anthracenone]
- EC50 [1]: 660 nM
- peak ACh level above baseline ([2]; 1 mg/kg oral, FIG. 2, delayed increase): over 100%
- time for which the increase in ACh level was maintained ([2]; 1 mg/kg oral, FIG. 2, entire duration of testing): ≥ 3 h
- AUC, Area % under the curve ([2]; 0.5 mg/kg, vehicle methocel): 253 ± 156%
- Peak, maximal % increase of ACh release over baseline ([2]; 0.5 mg/kg, vehicle methocel): 40 ± 21%
- time of Peak after administration ([2]; 0.5 mg/kg, vehicle methocel): 40 min
- Duration, minutes of release above statistical significance ([2]; 0.5 mg/kg, vehicle methocel, NSP = no significant points): NSP
- AUC, Area % under the curve ([2]; 1 mg/kg, vehicle methocel): 711 ± 158%
- Peak, maximal % increase of ACh release over baseline ([2]; 1 mg/kg, vehicle methocel): 115 ± 27%
- time of Peak after administration ([2]; 1 mg/kg, vehicle methocel): 180 min
- Duration, minutes of release above statistical significance ([2]; 1 mg/kg, vehicle methocel, NSP = no significant points): >

- EC50 [1]: 310 nM
Compound: O=C1c2ccccc2C(Cc2ccncc2)(Cc2ccnc(F)c2)c2ccccc21 [Example 66]

- EC50 [1]: 350 nM
Compound: Fc1cc(CC2(Cc3ccncc3)c3ccccc3Oc3ncccc32)ccn1 (stereo not drawn) [Example 70, 9-((2-Fluoro-4-pyridinyl)methyl)-9-(4-pyridinylmethyl)-4-azaxanthene]

- EC50 [1]: 880 nM
Compound: COc1ccc2c(c1)C(=O)c1ccc(OC)cc1C2(Cc1ccnc(F)c1)Cc1ccnc(F)c1 [Example 74, 10,10-Bis((2-fluoro-4-pyridinyl)methyl)-2,6-dimethoxy-9(10H)-anthracenone]

- EC50 [1]: 660 nM
Compound: COc1ccc2c(c1)C(Cc1ccnc(F)c1)(Cc1ccnc(F)c1)c1ccccc1C2=O [Example 77, 10,10-Bis((2-fluoro-4-pyridinyl)methyl)-3-methoxy-9(10H)-anthracenone]

- EC50 [1]: 2650 nM
Compound: C#Cc1ccc2c(c1)C(Cc1ccnc(F)c1)(Cc1ccnc(F)c1)c1cccnc1-2 [Example 79, 5,5-Bis((2-fluoro-4-pyridinyl)methyl)-7-(ethynyl)-5H-indeno-[1,2-b]pyridine]

- EC50 [1]: 2330 nM
Compound: Fc1cc(CC2(Cc3ccnc(F)c3)c3ccccc3-c3nccnc32)ccn1 [Example 80, 9,9-Bis((2-fluoro-4-pyridinyl)methyl)-9H-indeno-[1,2-b]pyrazine]

- EC50 [1]: 570 nM
Compound: Nc1cccc2c1C(Cc1ccnc(F)c1)(Cc1ccnc(F)c1)c1ccccc1-2 [Example 96, 9,9-Bis((2-fluoro-4-pyridinyl)methyl)-9H-fluoren-1-amine]
